This passage reports IC50 results from patent US12371454B2, “Cyclic peptide compound having Kras inhibitory action” (priority 2019, dated 2025).

Starred links: 1 amine or outer side, 2 acyl side, 3 side chain; linkers in the order of their positions; H or OH if unused. Positions of bridges follow the written chain, without caps; N, C: chain ends. Non-standard residues stand in square brackets, D forms with d. Residues, ends and D or L forms follow the SMILES beside them. *: point of attachment. hPhe(3-Cl-4-CF3) = N[C@@H](CCc1ccc(C(F)(F)F)c(Cl)c1)C(=O)O; NMePhe(4-CF3) = CN[C@@H](Cc1ccc(C(F)(F)F)cc1)C(=O)O; hPhe(4-CF3) = N[C@@H](CCc1ccc(C(F)(F)F)cc1)C(=O)O; NMeAla(4-thiazolyl) = CN[C@@H](Cc1cscn1)C(=O)O; NMePhe(4-Cl) = CN[C@@H](Cc1ccc(Cl)cc1)C(=O)O; Phe(3-Cl) = N[C@@H](Cc1cccc(Cl)c1)C(=O)O; X22 = O=C([C@@H]1Cc2ccccc2N1[*:1])[*:2]; NMeGly(cPent) = CN[C@H](C(=O)O)C1CCCC1; Phe(3-I) = N[C@@H](Cc1cccc(I)c1)C(=O)O; NMeCha = CN[C@@H](CC1CCCCC1)C(=O)O; NMeChg = CN[C@H](C(=O)O)C1CCCCC1; NMeF = CN[C@@H](Cc1ccccc1)C(=O)O; N(CH2CH2)2CF2 = FC1(F)CCN(*)CC1; NMeD = CN[C@@H](CC(=O)O)C(=O)O; NMeL = CN[C@@H](CC(C)C)C(=O)O; NMeV = CN[C@H](C(=O)O)C(C)C; d(β3hA) = C[C@@H](N)CC(=O)O; Azetidin(1-yl) = C1CN(*)C1; NMeA = CN[C@@H](C)C(=O)O; NMeAib = CNC(C)(C)C(=O)O; Nle = CCCC[C@H](N)C(=O)O; Piperidide = C1CCN(*)CC1; Pyrrolidide = C1CCN(*)C1; dNMeA = CN[C@H](C)C(=O)O; Ac5c = NC1(C(=O)O)CCCC1; Aze = O=C(O)[C@@H]1CCN1; Nva = CCC[C@H](N)C(=O)O; CH2CMe2OH = CC(C)(O)C*; X47 = Fc1cncc(C*)c1; NEtG = CCNCC(=O)O; Sar = CNCC(=O)O

The target in this assay is T1, Kras and SOS1 (biotin-tagged human Kras loaded with GDP, His-tagged human SOS1) (Homo sapiens, UniProt P01116, G12D).
T1 construct: made in house; host or cells: E. coli (stated for Kras only)
T1 sequence (P01116 1-188 isoform P01116-2 G12D): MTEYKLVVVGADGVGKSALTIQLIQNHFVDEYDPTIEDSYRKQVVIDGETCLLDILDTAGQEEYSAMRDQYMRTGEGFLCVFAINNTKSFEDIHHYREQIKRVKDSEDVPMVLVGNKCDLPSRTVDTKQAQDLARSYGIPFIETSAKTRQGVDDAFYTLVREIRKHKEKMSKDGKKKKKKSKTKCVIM
In words: Protein-protein interaction inhibition between Kras and SOS1 (KrasGl2D-SOS PPI) using AlphaScreen. Format: binding. The conditions noted are these: AlphaScreen; biotin-tagged human Kras loaded with GDP, His-tagged human SOS1; read-out: KRAS G12D-SOS PPI IC50. An outline of the steps: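 Donor beads (nickel) hold His-SOS1; acceptor beads (streptavidin) hold biotin-Kras bound to GDP. Signal measured at 520-620 nm following 680 nm excitation.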
`CC[C@H](C)[C@@H]1NC(=O)[C@H](CC(C)C)N(C)C(=O)C[C@@H](C(=O)N2CCCCC2)N(C)C(=O)[C@H](C(C)C)N(C)C(=O)[C@@H](C)NC(=O)[C@H](CC(=O)N2CCC(F)(F)CC2)N(C)C(=O)[C@H](CCc2ccc(C(F)(F)F)c(Cl)c2)NC(=O)CN(C)C(=O)[C@H](CC2CCCCC2)N(C)C(=O)CN(C)C(=O)CN(C)C1=O` [Compound 493] ([NMeL]I[Sar][Sar][NMeCha][Sar][hPhe(3-Cl-4-CF3)][NMeD](N(CH2CH2)2CF2)[dA][NMeV][NMeD]-Piperidide; lactam N-11): the IC50 was determined as 300 nM.
For `CCC[C@@H]1NC(=O)[C@H](CC(C)C)N(C)C(=O)C[C@@H](C(=O)N2CCCCC2)N(C)C(=O)[C@H](C2CCCCC2)N(C)C(=O)C2(CCCC2)NC(=O)[C@@H]2CCCN2C(=O)[C@H](CCc2ccc(C(F)(F)F)c(Cl)c2)NC(=O)CN(C)C(=O)[C@H](CC2CCCCC2)N(C)C(=O)CN(C)C(=O)CN(C)C1=O` [Compound 495] ([NMeL][Nva][Sar][Sar][NMeCha][Sar][hPhe(3-Cl-4-CF3)]P[Ac5c][NMeChg][NMeD]-Piperidide; lactam N-11) the value was 3.2 nM; for `CCCC[C@@H]1NC(=O)[C@H](Cc2cccc(I)c2)NC(=O)CN(C)C(=O)[C@H](Cc2ccc(Cl)cc2)N(C)C(=O)CN(C)C(=O)CN(C)C(=O)[C@H]([C@@H](C)CC)NC(=O)[C@H](CC(C)C)N(C)C(=O)C[C@@H](C(=O)N2CCCCC2)N(C)C(=O)[C@H](CC(C)C)NC(=O)[C@H](Cc2ccc(C(F)(F)F)cc2)N(C)C1=O` [Compound 498] ([NMeL]I[Sar][Sar][NMePhe(4-Cl)][Sar][Phe(3-I)][Nle][NMePhe(4-CF3)]L[NMeD]-Piperidide; lactam N-11), 49 nM.
As for `CC[C@H](C)[C@@H]1NC(=O)[C@H](C)N(C)C(=O)C[C@@H](C(=O)N2CCCC2)NC(=O)[C@H](CC(C)C)NC(=O)[C@H](Cc2ccccc2)N(C)C(=O)[C@H](CC(C)C)NC(=O)[C@H](Cc2cccc(Cl)c2)NC(=O)CN(C)C(=O)[C@H](Cc2ccc(Cl)cc2)N(C)C(=O)CN(C)C(=O)CN(C)C1=O` [Compound 499] ([NMeA]I[Sar][Sar][NMePhe(4-Cl)][Sar][Phe(3-Cl)]L[NMeF]LD-Pyrrolidide; lactam N-11), the IC50 is 85 nM.
Regarding `CC[C@H](C)[C@@H]1NC(=O)[C@H](CC(C)C)N(C)C(=O)C[C@@H](C(=O)N2CCCCC2)N(C)C(=O)[C@H](C2CCCCC2)N(C)C(=O)C2(CCCC2)NC(=O)[C@H](Cc2cscn2)N(C)C(=O)[C@H](CCc2ccc(C(F)(F)F)c(Cl)c2)NC(=O)CN(C)C(=O)[C@H](CC2CCCCC2)N(C)C(=O)CN(C)C(=O)CN(C)C1=O` [Compound 500] ([NMeL]I[Sar][Sar][NMeCha][Sar][hPhe(3-Cl-4-CF3)][NMeAla(4-thiazolyl)][Ac5c][NMeChg][NMeD]-Piperidide; lactam N-11), the IC50 was found to be 4.8 nM.
For `CC[C@H](C)[C@@H]1NC(=O)[C@H](C)N(C)C(=O)C[C@@H](C(=O)N2CCCC2)NC(=O)[C@H](CC(C)C)N(C)C(=O)[C@H](Cc2ccccc2)N(C)C(=O)[C@H](COCC(C)(C)O)NC(=O)[C@H](CCc2ccc(C(F)(F)F)cc2)NC(=O)CN(C)C(=O)[C@H](Cc2ccc(Cl)cc2)N(C)C(=O)CN(C)C(=O)CN(C)C1=O` [Compound 502] ([NMeA]I[Sar][Sar][NMePhe(4-Cl)][Sar][hPhe(4-CF3)]S(CH2CMe2OH)[NMeF][NMeL]D-Pyrrolidide; lactam N-11) the value was 47 nM.
Under `CC[C@H](C)[C@@H]1NC(=O)[C@H](CC(C)C)N(C)C(=O)C[C@@H](C)NC(=O)[C@H](C(C)C)N(C)C(=O)C2(CCCC2)NC(=O)[C@@H]2CCCN2C(=O)[C@H](CCc2ccc(C(F)(F)F)c(Cl)c2)NC(=O)CN(C)C(=O)[C@H](CC2CCCCC2)N(C)C(=O)CN(CC)C(=O)CN(C)C1=O` [Compound 504] (cyclo([Ac5c][NMeV][d(β3hA)][NMeL]I[Sar][NEtG][NMeCha][Sar][hPhe(3-Cl-4-CF3)]P)) stands 53 nM; under `CC[C@H](C)[C@@H]1NC(=O)[C@H](C)N(C)C(=O)C[C@@H](C(=O)N2CCCCC2)N(C)C(=O)[C@H](C(C)C)N(C)C(=O)C(C)(C)N(C)C(=O)[C@@H]2CCCN2C(=O)[C@H](CCc2ccc(C(F)(F)F)c(Cl)c2)NC(=O)CN(C)C(=O)[C@H](CC2CCCCC2)N(C)C(=O)CN(C)C(=O)CN(C)C1=O` [Compound 507] ([NMeA]I[Sar][Sar][NMeCha][Sar][hPhe(3-Cl-4-CF3)]P[NMeAib][NMeV][NMeD]-Piperidide; lactam N-11), 0.48 nM.
Under `CC[C@H](C)[C@@H]1NC(=O)[C@H](CC(C)C)N(C)C(=O)C[C@@H](C(=O)N2CCCC2)NC(=O)[C@H](C(C)C)N(C)C(=O)C2(CCCC2)NC(=O)[C@@H]2CCCN2C(=O)[C@H](CCc2ccc(C(F)(F)F)c(Cl)c2)NC(=O)CN(C)C(=O)[C@H](CC2CCCCC2)N(C)C(=O)CN(C)C(=O)CN(C)C1=O` [Compound 508] ([NMeL]I[Sar][Sar][NMeCha][Sar][hPhe(3-Cl-4-CF3)]P[Ac5c][NMeV]D-Pyrrolidide; lactam N-11) stands 12 nM.
For the compound `CC[C@H](C)[C@@H]1NC(=O)[C@H](C)N(C)C(=O)C[C@@H](C(=O)N2CCCC2)NC(=O)[C@H](CC(C)C)N(C)C(=O)[C@H](Cc2ccccc2)N(C)C(=O)[C@H](COCc2cncc(F)c2)NC(=O)[C@H](CCc2ccc(C(F)(F)F)cc2)NC(=O)CN(C)C(=O)[C@H](Cc2ccc(Cl)cc2)N(C)C(=O)CN(C)C(=O)CN(C)C1=O` [Compound 513] ([NMeA]I[Sar][Sar][NMePhe(4-Cl)][Sar][hPhe(4-CF3)]S(X47)[NMeF][NMeL]D-Pyrrolidide; lactam N-11), the IC50 came out at 46 nM.
For `CC[C@H](C)[C@@H]1NC(=O)[C@H](CC(C)C)N(C)C(=O)C[C@@H](C(=O)N2CCCCC2)N(C)C(=O)[C@H](C2CCCCC2)N(C)C(=O)C2(CCCC2)NC(=O)[C@@H]2Cc3ccccc3N2C(=O)[C@H](CCc2ccc(C(F)(F)F)c(Cl)c2)NC(=O)CN(C)C(=O)[C@H](CC2CCCCC2)N(C)C(=O)CN(C)C(=O)CN(C)C1=O` [Compound 514] ([NMeL]I[Sar][Sar][NMeCha][Sar][hPhe(3-Cl-4-CF3)][X22][Ac5c][NMeChg][NMeD]-Piperidide; lactam N-11), the IC50 was 14 nM.
In the case of `CC[C@H](C)[C@@H]1NC(=O)[C@H](CC(C)C)N(C)C(=O)C[C@@H](C(=O)N2CCC2)N(C)C(=O)[C@H](C2CCCC2)N(C)C(=O)C2(CCCC2)NC(=O)[C@@H]2CCCN2C(=O)[C@H](CCc2ccc(C(F)(F)F)c(Cl)c2)NC(=O)CN(C)C(=O)[C@H](CC2CCCCC2)N(C)C(=O)[C@@H]2CCN2C(=O)[C@H](C)N(C)C1=O` [Compound 515] ([NMeL]I[NMeA][Aze][NMeCha][Sar][hPhe(3-Cl-4-CF3)]P[Ac5c][NMeGly(cPent)][NMeD]-{Azetidin(1-yl)}; lactam N-11), the IC50 worked out at 0.55 nM.
For `CC[C@H](C)[C@@H]1NC(=O)[C@H](C)N(C)C(=O)C[C@@H](C)NC(=O)[C@H](C(C)C)N(C)C(=O)C2(CCCC2)NC(=O)[C@@H]2CCCN2C(=O)[C@H](CCc2ccc(C(F)(F)F)c(Cl)c2)NC(=O)[C@@H](C)N(C)C(=O)[C@H](CC2CCCCC2)N(C)C(=O)[C@@H]2CCCN2C(=O)CN(C)C1=O` [Compound 516] (cyclo([Ac5c][NMeV][d(β3hA)][NMeA]I[Sar]P[NMeCha][dNMeA][hPhe(3-Cl-4-CF3)]P)) the value was 62 nM.
